The term IC50 denotes the concentration that gives 50% inhibition.

SMILES strings stand for the structures. Where a SMILES comes first, the peptide text is derived from it. Bridges are numbered along the chain shown (N, C = ends). [ ]: non-standard residue; d: D form. The star is where a group is joined. X1 = O=C(O)CCCCCCCCCCCCCCCCC(=O)N[C@@H](CCC(=O)NCCOCCOCCOCCOCCOCCOCCOCCOCCOCCOCCOCCn1cc(C*)nn1)C(=O)O; Phe(4-COOH) = N[C@@H](Cc1ccc(C(=O)O)cc1)C(=O)O; Bip = N[C@@H](Cc1ccc(-c2ccccc2)cc1)C(=O)O; Phe(3-Me) = Cc1cccc(C[C@H](N)C(=O)O)c1; Cha = N[C@@H](CC1CCCCC1)C(=O)O; Carboxymethyl = O=C(O)C*; Nle = CCCC[C@H](N)C(=O)O; Orn = NCCC[C@H](N)C(=O)O; Dab = NCC[C@H](N)C(=O)O; Nva = CCC[C@H](N)C(=O)O; Abu = CC[C@H](N)C(=O)O; Dap = NC[C@H](N)C(=O)O

The test deals with T1, human PD-1 (Jurkat-PD-1 cells; binding of PE-labeled human PD-L1-Ig) (Homo sapiens, UniProt Q15116).
T1 construct: expressed in transfected cells; host or cells: Jurkat (Jurkat-PD-1 / Jurkat-hPD-1)
T1 sequence (Q15116 25-288): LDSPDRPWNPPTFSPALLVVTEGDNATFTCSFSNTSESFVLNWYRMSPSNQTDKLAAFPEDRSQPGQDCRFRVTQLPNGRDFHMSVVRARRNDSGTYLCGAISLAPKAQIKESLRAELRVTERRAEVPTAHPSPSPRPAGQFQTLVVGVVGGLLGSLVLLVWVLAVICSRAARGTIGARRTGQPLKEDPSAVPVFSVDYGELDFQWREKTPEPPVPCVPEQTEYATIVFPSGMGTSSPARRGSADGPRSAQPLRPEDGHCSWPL
In words: Jurkat-PD-1 Cell Binding High-Content Screening Assay. As to conditions: Jurkat cell line over-expressing human PD-1; compound 2 h at 37° C., then PE-labeled PD-L1-Ig 20 nM final, 1 hour; read-out: Jurkat hPD1 PDL1 IC50. How it is done: The ability of the compounds of formula (I) to bind to PD-1 was investigated using a Jurkat-PD-1 Cell Binding High-Content Screening Assay.
Phycoerythrin (PE) was covalently linked to the Ig epitope tag of human PD-L1-Ig and fluorescently-labeled PD-L1-Ig was used for binding studies with a Jurkat cell line over-expressing human PD-1 (Jurkat-PD-1). Briefly, 8×10^3 Jurkat-hPD-1 cells were seeded into 384 well plates in 20 μl of DIVEM supplemented with 10% fetal calf serum. 100 nl of compound was added to cells followed by incubation at 37° C. for 2 h. Then, 5 μl of PE-labeled PD-L1-Ig (20 nM final), diluted in DiVEM supplemented with 10 fetal calf serum. After 1 hour incubation, cells were fixed with […] in dPBS containing 10 µg/mL Hoechst 33342 and then washed 3× in 100 μl dPB S. Data was collected and processed using a Cell Insight NXT High Content Imager and associated software.
With `Cc1cccc(C[C@@H]2NC(=O)[C@H](CC(=O)O)NC(=O)[C@H](Cc3ccc(OCC(=O)O)cc3)NC(=O)[C@H](CCN)NC(=O)CSC[C@@H](C(=O)N[C@@H](CCN)C(N)=O)NC(=O)[C@H](Cc3ccc(OCc4cn(CCOCCOCCOCCOCCOCCOCCOCCOCCOCCOCCOCCNC(=O)CC[C@H](NC(=O)CCCCCCCCCCCCCCCCC(=O)O)C(=O)O)nn4)cc3)NC(=O)[C@H](C(C)C)NC(=O)[C@H](CC3CCCCC3)NC(=O)[C@H](CCN)NC(=O)[C@@H](CC(C)C)NC(=O)[C@H](CCCN)NC(=O)[C@H](Cc3ccc(OCC(=O)O)cc3)NC(=O)[C@H](Cc3ccc(-c4ccccc4)cc3)NC(=O)[C@H](Cc3ccc(OCC(=O)O)cc3)NC2=O)c1` [Compound 1012] ({CH2CO}-[Dab]Y(Carboxymethyl)D[Phe(3-Me)]Y(Carboxymethyl)[Bip]Y(Carboxymethyl)[Orn][dL][Dab][Cha]VY(X1)C[Dab]-NH2; thioether N-14), the IC50 worked out at 380 nM.

Consider `Cc1cccc(C[C@@H]2NC(=O)[C@H](CC(=O)O)NC(=O)[C@H](Cc3ccc(OCC(=O)O)cc3)NC(=O)[C@H](CN)NC(=O)CSC[C@@H](C(=O)N[C@@H](CCN)C(N)=O)NC(=O)[C@H](Cc3ccc(OCc4cn(CCOCCOCCOCCOCCOCCOCCOCCOCCOCCOCCOCCNC(=O)CC[C@H](NC(=O)CCCCCCCCCCCCCCCCC(=O)O)C(=O)O)nn4)cc3)NC(=O)[C@H](C(C)C)NC(=O)[C@H](CC3CCCCC3)NC(=O)[C@H](CCN)NC(=O)[C@@H](CC(C)C)NC(=O)[C@H](CCCN)NC(=O)[C@H](Cc3ccc(OCC(=O)O)cc3)NC(=O)[C@H](Cc3ccc(-c4ccccc4)cc3)NC(=O)[C@H](Cc3ccc(OCC(=O)O)cc3)NC2=O)c1` [Compound 1013] ({CH2CO}-[Dap]Y(Carboxymethyl)D[Phe(3-Me)]Y(Carboxymethyl)[Bip]Y(Carboxymethyl)[Orn][dL][Dab][Cha]VY(X1)C[Dab]-NH2; thioether N-14), for which the half-maximal inhibitory concentration (IC50) was 240 nM.

On to `Cc1cccc(C[C@@H]2NC(=O)[C@H](CC(=O)O)NC(=O)[C@H](Cc3ccc(OCC(=O)O)cc3)NC(=O)[C@H](CCCNC(=N)N)NC(=O)CSC[C@@H](C(=O)N[C@@H](CCN)C(N)=O)NC(=O)[C@H](Cc3ccc(OCc4cn(CCOCCOCCOCCOCCOCCOCCOCCOCCOCCOCCOCCNC(=O)CC[C@H](NC(=O)CCCCCCCCCCCCCCCCC(=O)O)C(=O)O)nn4)cc3)NC(=O)[C@H](C(C)C)NC(=O)[C@H](CC3CCCCC3)NC(=O)[C@H](CCN)NC(=O)[C@@H](CC(C)C)NC(=O)[C@H](CCCN)NC(=O)[C@H](Cc3ccc(OCC(=O)O)cc3)NC(=O)[C@H](Cc3ccc(-c4ccccc4)cc3)NC(=O)[C@H](Cc3ccc(OCC(=O)O)cc3)NC2=O)c1` [Compound 1014] ({CH2CO}-RY(Carboxymethyl)D[Phe(3-Me)]Y(Carboxymethyl)[Bip]Y(Carboxymethyl)[Orn][dL][Dab][Cha]VY(X1)C[Dab]-NH2; thioether N-14), for which the IC50 was determined as 73 nM.

For `Cc1cccc(C[C@@H]2NC(=O)[C@H](CC(=O)O)NC(=O)[C@H](Cc3ccc(OCC(=O)O)cc3)NC(=O)[C@H](Cc3c[nH]cn3)NC(=O)CSC[C@@H](C(=O)N[C@@H](CCN)C(N)=O)NC(=O)[C@H](Cc3ccc(OCc4cn(CCOCCOCCOCCOCCOCCOCCOCCOCCOCCOCCOCCNC(=O)CC[C@H](NC(=O)CCCCCCCCCCCCCCCCC(=O)O)C(=O)O)nn4)cc3)NC(=O)[C@H](C(C)C)NC(=O)[C@H](CC3CCCCC3)NC(=O)[C@H](CCN)NC(=O)[C@@H](CC(C)C)NC(=O)[C@H](CCCN)NC(=O)[C@H](Cc3ccc(OCC(=O)O)cc3)NC(=O)[C@H](Cc3ccc(-c4ccccc4)cc3)NC(=O)[C@H](Cc3ccc(OCC(=O)O)cc3)NC2=O)c1` [Compound 1015] ({CH2CO}-HY(Carboxymethyl)D[Phe(3-Me)]Y(Carboxymethyl)[Bip]Y(Carboxymethyl)[Orn][dL][Dab][Cha]VY(X1)C[Dab]-NH2; thioether N-14), the IC50 worked out at 100 nM.

For the molecule `CCCC[C@@H]1NC(=O)CSC[C@@H](C(=O)N[C@@H](CCN)C(N)=O)NC(=O)[C@H](CCC(=O)O)NC(=O)[C@H](C(C)C)NC(=O)[C@H](CC2CCCCC2)NC(=O)[C@H](CCN)NC(=O)[C@@H](CC(C)C)NC(=O)[C@H](CCCN)NC(=O)[C@H](Cc2ccc(OCC(=O)O)cc2)NC(=O)[C@H](Cc2ccc(-c3ccccc3)cc2)NC(=O)[C@H](Cc2ccc(OCc3cn(CCOCCOCCOCCOCCOCCOCCOCCOCCOCCOCCOCCNC(=O)CC[C@H](NC(=O)CCCCCCCCCCCCCCCCC(=O)O)C(=O)O)nn3)cc2)NC(=O)[C@H](Cc2cccc(C)c2)NC(=O)[C@H](CC(=O)O)NC(=O)[C@H](Cc2ccc(OCC(=O)O)cc2)NC1=O` [Compound 1016] ({CH2CO}-[Nle]Y(Carboxymethyl)D[Phe(3-Me)]Y(X1)[Bip]Y(Carboxymethyl)[Orn][dL][Dab][Cha]VEC[Dab]-NH2; thioether N-14), the IC50 amounted to 100 nM.

In the case of `CC[C@@H]1NC(=O)CSC[C@@H](C(=O)N[C@@H](CCN)C(N)=O)NC(=O)[C@H](CCC(=O)O)NC(=O)[C@H](C(C)C)NC(=O)[C@H](CC2CCCCC2)NC(=O)[C@H](CCN)NC(=O)[C@@H](CC(C)C)NC(=O)[C@H](CCCN)NC(=O)[C@H](Cc2ccc(OCC(=O)O)cc2)NC(=O)[C@H](Cc2ccc(-c3ccccc3)cc2)NC(=O)[C@H](Cc2ccc(OCc3cn(CCOCCOCCOCCOCCOCCOCCOCCOCCOCCOCCOCCNC(=O)CC[C@H](NC(=O)CCCCCCCCCCCCCCCCC(=O)O)C(=O)O)nn3)cc2)NC(=O)[C@H](Cc2cccc(C)c2)NC(=O)[C@H](CC(=O)O)NC(=O)[C@H](Cc2ccc(OCC(=O)O)cc2)NC1=O` [Compound 1017] ({CH2CO}-[Abu]Y(Carboxymethyl)D[Phe(3-Me)]Y(X1)[Bip]Y(Carboxymethyl)[Orn][dL][Dab][Cha]VEC[Dab]-NH2; thioether N-14), the IC50 was 90 nM.

Take `CCC[C@@H]1NC(=O)CSC[C@@H](C(=O)N[C@@H](CCN)C(N)=O)NC(=O)[C@H](CCC(=O)O)NC(=O)[C@H](C(C)C)NC(=O)[C@H](CC2CCCCC2)NC(=O)[C@H](CCN)NC(=O)[C@@H](CC(C)C)NC(=O)[C@H](CCCN)NC(=O)[C@H](Cc2ccc(OCC(=O)O)cc2)NC(=O)[C@H](Cc2ccc(-c3ccccc3)cc2)NC(=O)[C@H](Cc2ccc(OCc3cn(CCOCCOCCOCCOCCOCCOCCOCCOCCOCCOCCOCCNC(=O)CC[C@H](NC(=O)CCCCCCCCCCCCCCCCC(=O)O)C(=O)O)nn3)cc2)NC(=O)[C@H](Cc2cccc(C)c2)NC(=O)[C@H](CC(=O)O)NC(=O)[C@H](Cc2ccc(OCC(=O)O)cc2)NC1=O` [Compound 1018] ({CH2CO}-[Nva]Y(Carboxymethyl)D[Phe(3-Me)]Y(X1)[Bip]Y(Carboxymethyl)[Orn][dL][Dab][Cha]VEC[Dab]-NH2; thioether N-14): the IC50 amounted to 110 nM.

For the molecule `Cc1cccc(C[C@@H]2NC(=O)[C@H](CC(=O)O)NC(=O)[C@H](Cc3ccc(OCC(=O)O)cc3)NC(=O)[C@H]([C@@H](C)O)NC(=O)CSC[C@@H](C(=O)N[C@@H](CCN)C(N)=O)NC(=O)[C@H](CCC(=O)O)NC(=O)[C@H](C(C)C)NC(=O)[C@H](CC3CCCCC3)NC(=O)[C@H](CCN)NC(=O)[C@@H](CC(C)C)NC(=O)[C@H](CCCN)NC(=O)[C@H](Cc3ccc(OCC(=O)O)cc3)NC(=O)[C@H](Cc3ccc(-c4ccccc4)cc3)NC(=O)[C@H](Cc3ccc(OCc4cn(CCOCCOCCOCCOCCOCCOCCOCCOCCOCCOCCOCCNC(=O)CC[C@H](NC(=O)CCCCCCCCCCCCCCCCC(=O)O)C(=O)O)nn4)cc3)NC2=O)c1` [Compound 1019] ({CH2CO}-TY(Carboxymethyl)D[Phe(3-Me)]Y(X1)[Bip]Y(Carboxymethyl)[Orn][dL][Dab][Cha]VEC[Dab]-NH2; thioether N-14), the IC50 turned out to be 140 nM.

For `CCCC[C@@H]1NC(=O)CSC[C@@H](C(=O)N[C@@H](CCN)C(N)=O)NC(=O)[C@H](CCC(=O)O)NC(=O)[C@H](C(C)C)NC(=O)[C@H](CC2CCCCC2)NC(=O)[C@H](CCN)NC(=O)[C@@H](CC(C)C)NC(=O)[C@H](CCCN)NC(=O)[C@H](Cc2ccc(C(=O)O)cc2)NC(=O)[C@H](Cc2ccc(-c3ccccc3)cc2)NC(=O)[C@H](Cc2ccc(OCc3cn(CCOCCOCCOCCOCCOCCOCCOCCOCCOCCOCCOCCNC(=O)CC[C@H](NC(=O)CCCCCCCCCCCCCCCCC(=O)O)C(=O)O)nn3)cc2)NC(=O)[C@H](Cc2cccc(C)c2)NC(=O)[C@H](CC(=O)O)NC(=O)[C@H](Cc2ccc(C(=O)O)cc2)NC1=O` [Compound 1020] ({CH2CO}-[Nle][Phe(4-COOH)]D[Phe(3-Me)]Y(X1)[Bip][Phe(4-COOH)][Orn][dL][Dab][Cha]VEC[Dab]-NH2; thioether N-14), the IC50 came to 96 nM.

`CC[C@@H]1NC(=O)CSC[C@@H](C(=O)N[C@@H](CCN)C(N)=O)NC(=O)[C@H](CCC(=O)O)NC(=O)[C@H](C(C)C)NC(=O)[C@H](CC2CCCCC2)NC(=O)[C@H](CCN)NC(=O)[C@@H](CC(C)C)NC(=O)[C@H](CCCN)NC(=O)[C@H](Cc2ccc(C(=O)O)cc2)NC(=O)[C@H](Cc2ccc(-c3ccccc3)cc2)NC(=O)[C@H](Cc2ccc(OCc3cn(CCOCCOCCOCCOCCOCCOCCOCCOCCOCCOCCOCCNC(=O)CC[C@H](NC(=O)CCCCCCCCCCCCCCCCC(=O)O)C(=O)O)nn3)cc2)NC(=O)[C@H](Cc2cccc(C)c2)NC(=O)[C@H](CC(=O)O)NC(=O)[C@H](Cc2ccc(C(=O)O)cc2)NC1=O` [Compound 1021] ({CH2CO}-[Abu][Phe(4-COOH)]D[Phe(3-Me)]Y(X1)[Bip][Phe(4-COOH)][Orn][dL][Dab][Cha]VEC[Dab]-NH2; thioether N-14): the IC50 came to 95 nM.

The values above are taken from US20250250299A1, “MACROCYCLIC IMMUNOMODULATORS” (Bristol-Myers Squibb Company, priority 2022, published 2025).
